Calls of active or inactive are those of the source.
How the values were obtained:
[1] = target: T1, Short transient receptor potential channel 4 (Mus musculus, UniProt Q9QUQ5); test: mouse TRPC4 channel activators, dose response, cell-based, HEK293 TRPC4/mu-opioid, Fluo-4 calcium (AID 434937); type: functional
T1 sequence (Q9QUQ5 whole entry): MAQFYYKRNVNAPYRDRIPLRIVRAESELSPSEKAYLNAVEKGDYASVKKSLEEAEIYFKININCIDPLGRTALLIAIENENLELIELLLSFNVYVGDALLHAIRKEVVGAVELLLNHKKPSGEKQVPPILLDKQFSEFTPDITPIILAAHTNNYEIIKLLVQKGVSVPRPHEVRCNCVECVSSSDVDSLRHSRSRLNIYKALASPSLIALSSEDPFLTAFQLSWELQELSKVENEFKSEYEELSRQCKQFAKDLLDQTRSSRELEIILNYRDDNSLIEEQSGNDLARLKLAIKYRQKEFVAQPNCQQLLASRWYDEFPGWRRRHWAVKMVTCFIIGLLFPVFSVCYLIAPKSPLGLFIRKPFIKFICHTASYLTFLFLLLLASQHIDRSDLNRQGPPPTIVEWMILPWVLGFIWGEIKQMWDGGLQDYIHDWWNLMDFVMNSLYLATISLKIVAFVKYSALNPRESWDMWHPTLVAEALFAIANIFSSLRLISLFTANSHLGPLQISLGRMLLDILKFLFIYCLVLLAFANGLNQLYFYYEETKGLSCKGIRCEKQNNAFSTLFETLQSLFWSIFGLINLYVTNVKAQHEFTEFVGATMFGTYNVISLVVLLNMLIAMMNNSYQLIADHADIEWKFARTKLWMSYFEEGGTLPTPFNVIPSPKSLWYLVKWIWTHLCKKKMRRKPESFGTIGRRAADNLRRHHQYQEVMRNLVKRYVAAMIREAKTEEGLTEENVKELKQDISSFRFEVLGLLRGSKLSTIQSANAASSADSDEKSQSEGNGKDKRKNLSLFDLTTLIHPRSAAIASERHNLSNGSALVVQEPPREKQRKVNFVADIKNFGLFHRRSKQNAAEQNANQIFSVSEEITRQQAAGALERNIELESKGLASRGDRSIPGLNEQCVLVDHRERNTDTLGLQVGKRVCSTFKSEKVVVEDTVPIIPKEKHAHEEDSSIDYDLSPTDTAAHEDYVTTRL

[2] = target: T2, Tyrosine-protein phosphatase non-receptor type 22 (Homo sapiens, UniProt Q9Y2R2); test: LYP1 Fluorescent Assay using OMFP substrate for In Vitro dose response studies. [Related pubchem assays (depositor defined):AID1779, AID1784, AID435024]
T2 sequence (Q9Y2R2 whole entry): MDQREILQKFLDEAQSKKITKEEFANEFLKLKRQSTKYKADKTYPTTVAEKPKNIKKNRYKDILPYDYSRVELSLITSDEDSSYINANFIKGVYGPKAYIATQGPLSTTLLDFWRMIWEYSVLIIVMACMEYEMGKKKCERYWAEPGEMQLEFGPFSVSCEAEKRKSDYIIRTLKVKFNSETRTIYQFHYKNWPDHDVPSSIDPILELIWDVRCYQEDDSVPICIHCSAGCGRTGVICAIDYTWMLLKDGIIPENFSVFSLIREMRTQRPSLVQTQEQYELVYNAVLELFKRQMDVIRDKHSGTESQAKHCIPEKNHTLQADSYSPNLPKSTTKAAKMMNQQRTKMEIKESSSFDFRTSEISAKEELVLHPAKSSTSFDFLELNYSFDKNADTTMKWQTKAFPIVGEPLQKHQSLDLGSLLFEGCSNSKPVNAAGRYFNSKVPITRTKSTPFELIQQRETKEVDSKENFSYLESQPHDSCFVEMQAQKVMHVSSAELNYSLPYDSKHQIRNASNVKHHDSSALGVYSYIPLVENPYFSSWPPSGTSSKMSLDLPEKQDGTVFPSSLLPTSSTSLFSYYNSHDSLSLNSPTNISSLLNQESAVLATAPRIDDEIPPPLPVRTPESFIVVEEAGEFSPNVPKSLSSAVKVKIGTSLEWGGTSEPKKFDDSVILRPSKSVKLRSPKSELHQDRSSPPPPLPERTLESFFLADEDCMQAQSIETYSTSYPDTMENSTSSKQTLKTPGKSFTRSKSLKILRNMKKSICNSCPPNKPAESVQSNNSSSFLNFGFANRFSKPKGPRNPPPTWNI

[3] = target: T3, Glutathione-S-transferase (Schistosoma japonicum, UniProt Q26513); test: biotin-GST/anti-GST TR-FRET signal inhibitors, dose response, artefact control for Vif-APOBEC3G degradation inhibitor project, biochemical (AID 1117362); type: functional
T3 sequence (Q26513 whole entry): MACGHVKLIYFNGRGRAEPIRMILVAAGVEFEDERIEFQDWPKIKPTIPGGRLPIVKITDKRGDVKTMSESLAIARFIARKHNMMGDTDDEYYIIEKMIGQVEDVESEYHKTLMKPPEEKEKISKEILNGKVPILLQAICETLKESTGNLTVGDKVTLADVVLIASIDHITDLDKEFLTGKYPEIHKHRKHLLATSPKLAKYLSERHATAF

CCN1/C(=C/c2ccc3cc(C)ccc3[n+]2CC)Sc2cc(C)c(C)cc21
EC50 [1]: 11.9 µM (active)

O=C(O)COc1ccc(/C=N/NC(=O)c2ccc(-c3csc(Nc4ccc(Cl)cc4)n3)cc2)cc1
IC50 [2]: > 99 µM (inactive)

COc1cc(NCCCNC(C)C)c2nccc(C)c2c1
IC50 [3]: 28.7 µM (active)

— ChEMBL document CHEMBL1201862, “PubChem BioAssay data set” (2004)
